Several values for one entry are separate records, joined by “and”; a condition that tells them apart may be missing. Equal values may be shown once. Toxic doses and inconclusive results are not listed. Cut-off read from the data, not from the text of the source: active = T/C of 150% or more; inactive = T/C below 125%.
System: L1210 leukemia ip in BDF1 mice, survival T/C
Experiment: NCI In Vivo Anticancer Drug Screen. Data for tumor model L1210 Leukemia (intraperitoneal) in B6D2F1 (BDF1) mice
Conditions: endpoint: mean survival time, higher = longer survival
Outline: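 Read-out is survival time, reported as the treated-group measurement over the vehicle-control measurement.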

[1] = dose: 50.0 mg/kg/injection, schedule: Q01DX009 (ip), vehicle: Klucel (hydroxypropylcellulose) (HPC)
[2] = dose: 100.0 mg/kg/injection, schedule: Q01DX009 (ip), vehicle: Klucel (hydroxypropylcellulose) (HPC)
[3] = dose: 100.0 mg/kg/injection, schedule: Q04DX003 (ip), vehicle: saline with Tween-80
[4] = dose: 200.0 mg/kg/injection, schedule: Q01DX009 (ip), vehicle: Klucel (hydroxypropylcellulose) (HPC)
[5] = dose: 200.0 mg/kg/injection, schedule: Q04DX003 (ip), vehicle: saline with Tween-80
[6] = dose: 100.0 mg/kg/injection, schedule: Q04DX002 (ip), vehicle: Klucel (hydroxypropylcellulose) (HPC)
[7] = dose: 200.0 mg/kg/injection, schedule: Q04DX002 (ip), vehicle: Klucel (hydroxypropylcellulose) (HPC)
[8] = dose: 400.0 mg/kg/injection, schedule: Q04DX002 (ip), vehicle: Klucel (hydroxypropylcellulose) (HPC)
[9] = dose: 100.0 mg/kg/injection, schedule: Q04DX003 (ip), vehicle: Klucel (hydroxypropylcellulose) (HPC)
[10] = dose: 200.0 mg/kg/injection, schedule: Q04DX003 (ip), vehicle: Klucel (hydroxypropylcellulose) (HPC)
[11] = dose: 400.0 mg/kg/injection, schedule: Q04DX003 (ip), vehicle: Klucel (hydroxypropylcellulose) (HPC)

Measured: T/C

O=C1/C(=C/c2cccnc2)CCc2ccccc21
inactive: dose: 25.0 mg/kg/injection, schedule: Q01DX009 (ip), vehicle: Klucel (hydroxypropylcellulose) (HPC) 98 % of control | [1] 106 % of control | [2] 97 % of control | [3] 104 % of control | [4] 112 % of control | [5] 97 % of control

FC(Cl)(Cl)c1nc2nc(Cl)c(Cl)nc2[nH]1
inactive: dose: 25.0 mg/kg/injection, schedule: Q01DX009 (ip), vehicle: water 95 % of control | dose: 50.0 mg/kg/injection, schedule: Q01DX009 (ip), vehicle: water 94 % of control | dose: 100.0 mg/kg/injection, schedule: Q01DX009 (ip), vehicle: water 97 % of control

CC(C)(C)NC(=O)CCC(CC(=O)NC(C)(C)C)S(=O)(=O)O (stereo not given)
inactive: dose: 50.0 mg/kg/injection, schedule: Q01DX009 (ip), vehicle: saline 97 % of control | dose: 100.0 mg/kg/injection, schedule: Q01DX009 (ip), vehicle: saline 97 % of control | dose: 100.0 mg/kg/injection, schedule: Q04DX003 (ip), vehicle: saline 98 % of control | dose: 200.0 mg/kg/injection, schedule: Q01DX009 (ip), vehicle: saline 90 % of control | dose: 200.0 mg/kg/injection, schedule: Q04DX003 (ip), vehicle: saline 95 % of control

O=C(/C=C/c1ccc(Br)cc1)c1ccc(Cl)cc1
inactive: dose: 100.0 mg/kg/injection, schedule: Q01DX009 (ip), vehicle: saline with Tween-80 96 % of control | [3] 96 % of control | dose: 200.0 mg/kg/injection, schedule: Q01DX009 (ip), vehicle: saline with Tween-80 96 % of control | [5] 91 % of control | dose: 400.0 mg/kg/injection, schedule: Q01DX009 (ip), vehicle: saline with Tween-80 94 % of control | dose: 400.0 mg/kg/injection, schedule: Q04DX003 (ip), vehicle: saline with Tween-80 92 % of control

CCC1=C(CC2NCCc3cc(OC)c(OC)cc32)CC2c3ccccc3CCN2C1 (stereo not given)
inactive: dose: 4.0 mg/kg/injection, schedule: Q04DX003 (ip), vehicle: water 105 % of control and 106 % of control | dose: 8.0 mg/kg/injection, schedule: Q04DX003 (ip), vehicle: water 104 % of control and 108 % of control | dose: 16.0 mg/kg/injection, schedule: Q04DX003 (ip), vehicle: water 112 % of control and 100 % of control | dose: 32.0 mg/kg/injection, schedule: Q04DX003 (ip), vehicle: water 105 % of control and 98 % of control | dose: 64.0 mg/kg/injection, schedule: Q04DX003 (ip), vehicle: water 100 % of control | dose: 75.0 mg/kg/injection, schedule: Q01DX001 (ip), vehicle: saline 100 % of control and 97 % of control | dose: 150.0 mg/kg/injection, schedule: Q01DX001 (ip), vehicle: saline 101 % of control and 103 % of control

CCOC(=O)/C(O)=C\c1cc[n+]([O-])nc1Cl
inactive: [6] 101 % of control | [7] 101 % of control | [8] 101 % of control

COc1cccc(NC(=S)Nc2ccccc2)c1
inactive: [6] 95 % of control | [7] 88 % of control | [8] 111 % of control

CCc1csc(=S)[nH]1
inactive: [1] 98 % of control | [2] 93 % of control | [9] 98 % of control | [4] 96 % of control | [10] 98 % of control

NC(=O)N1CC(c2ccccc2)CCc2ccccc21 (stereo not given)
inactive: dose: 100.0 mg/kg/injection, schedule: Q01DX001 (ip), vehicle: saline 98 % of control | dose: 200.0 mg/kg/injection, schedule: Q01DX001 (ip), vehicle: saline 108 % of control | dose: 400.0 mg/kg/injection, schedule: Q01DX001 (ip), vehicle: saline 102 % of control

CCCCCCCCCCCCCCOc1ccc2ccccc2c1
inactive: [9] 94 % of control | [10] 96 % of control | [11] 91 % of control

Oc1c(I)cc(I)c2cccnc12
inactive: dose: 100.0 mg/kg/injection, schedule: Q01DX001 (ip), vehicle: Klucel (hydroxypropylcellulose) (HPC) 102 % of control | dose: 200.0 mg/kg/injection, schedule: Q01DX001 (ip), vehicle: Klucel (hydroxypropylcellulose) (HPC) 106 % of control

N#Cc1c(O)c(Cl)c(Cl)c(O)c1C#N
inactive: [9] 109 % of control | [10] 96 % of control | [11] 96 % of control

CC1(C)N=C1c1ccccc1
inactive: dose: 100.0 mg/kg/injection, schedule: Q04DX002 (ip), vehicle: saline 98 % of control | dose: 200.0 mg/kg/injection, schedule: Q04DX002 (ip), vehicle: saline 117 % of control

C=C1C(=O)N(C)CCC1(O)C(CC)C(=O)OC (stereo not given)
inactive: dose: 6.25 mg/kg/injection, schedule: Q01DX001 (ip), vehicle: saline 98 % of control | dose: 12.5 mg/kg/injection, schedule: Q01DX001 (ip), vehicle: saline 98 % of control | dose: 25.0 mg/kg/injection, schedule: Q01DX001 (ip), vehicle: saline 98 % of control | dose: 50.0 mg/kg/injection, schedule: Q01DX001 (ip), vehicle: saline 98 % of control

Reference: PubChem BioAssay AID248 (DTP/NCI, 2004)
